Residues, ends and D or L forms follow the SMILES beside them.
Experiments:
heparan sulfate (HS) = assay: Heparan sulfate shedding in high glucose-treated hRMECs (Western blot); type: cell-based, human; details: 30 mM glucose 72 hours, 50 or 100 μM apoEdp
From the text: Cell Culture. Primary cultures of human retina microvascular endothelial cells (hRMECs) were purchased from the Applied Cell Biology Research Institute and grown on attachment factor-coated plates in cell systems complete (CSC) medium (Cell Systems, Kirkland, Wash.) supplemented with 20% fetal bovine serum, culture boost (animal derived growth factors) and bac-off (antibiotics). The primary hRMECs were used in their passages 4 to 6. The 18-a.a. apoE mimetic peptide apoEdp (SEQ ID NO:3, Ac-LRKLRKRLLLRKLRKRLL-amide), derived from the human apolipoprotein E receptor-binding region (see SED ID NO:1) between residues 141 and 149, was synthesized (Genemed, Arlington, Tex.) with a purity of greater than 95%. The apoEdp peptide was dissolved in phosphate-buffered saline (“PBS”) at a concentration appropriate for further experimental use. […]
Western Blotting. […] The total protein concentration was determined using a BCA protein assay kit (Pierce, Rockford, Ill.). […] To ensure the equal loading of protein in each lane, each membrane was stripped and re-probed with an antibody against β-actin, and the chemiluminescence was detected as described previously. After scanning the blots with a flatbed scanner, band intensities were analyzed using ImageJ (NIH) and the relative intensity values were normalized to control values. […]

MMP9 = assay: Laser photocoagulation-induced retinal injury in mice, MMP9 real-time RT-PCR; type: in vivo, mouse; details: apoEdp 40 mg/kg intraperitoneally once each day for 7 days, vs mice without apoEdp
Protocol: Laser Photocoagulation-Induced Retinopathy. Female mice (C57BL/6J), aged 6-8 weeks, were used for retinal laser photocoagulation studies. The mice were treated and maintained in accordance with the ARVO Statement for the Use of Animals in Ophthalmic and Vision Research. The mice were anesthetized by intraperitoneal injection of a mixture of ketamine (100 mg/kg; Warner Lambert Co., Morris Plains, N.J.) and xylazine (10 mg/kg; Bayer AG, Leverkusen, Germany), and the pupils dilated with 2.5% tropicamide (Alcon, Fort Worth, Tex.). […]
RNA Extraction, Reverse Transcription, & PCR. […] Gene expression was measured at RNA level per 100 ng of total RNA using one-step RT-PCR kit (Bio-Rad, Hercules, Calif.). Four host genes (mouse GAPDH, mouse MMP2, mouse HPSE-1 (heparanase-1), and mouse MMP9) were analyzed to confirm relative quantitative expression levels. The primer pairs used were specifically designed and synthesized by Qiagen GmbH, Hilden, Germany (Quantitech Primer assay kit, for each host gene, catalog numbers QT01658692, QT00088396, QT00009555, and QT00040040, respectively). One-step Real-time quantitative RT-PCR reactions were performed in a 50-μL volume containing a solution of 1× supermix (iQ SYBR Green; Bio-Rad, Hercules, Calif.), 1 μM mix of forward and reverse primers, and 5 μL total RNA. […] Relative quantitative expression levels were determined for each gene. […]

`CC(=O)N[C@@H](CC(C)C)C(=O)N[C@@H](CCCNC(=N)N)C(=O)N[C@@H](CCCCN)C(=O)N[C@@H](CC(C)C)C(=O)N[C@@H](CCCNC(=N)N)C(=O)N[C@@H](CCCCN)C(=O)N[C@@H](CCCNC(=N)N)C(=O)N[C@@H](CC(C)C)C(=O)N[C@@H](CC(C)C)C(=O)N[C@@H](CC(C)C)C(=O)N[C@@H](CCCNC(=N)N)C(=O)N[C@@H](CCCCN)C(=O)N[C@@H](CC(C)C)C(=O)N[C@@H](CCCNC(=N)N)C(=O)N[C@@H](CCCCN)C(=O)N[C@@H](CCCNC(=N)N)C(=O)N[C@@H](CC(C)C)C(=O)N[C@@H](CC(C)C)C(N)=O` [apoEdp, Ac-LRKLRKRLLLRKLRKRLL-amide] (Ac-LRKLRKRLLLRKLRKRLL-NH2) was tested, and the “High glucose-induced shedding of HS” value (heparan sulfate (HS)) was “reduced the shedding” and the “Expression of MMP9 in retina” value (MMP9) was “dramatically reduced”.
